One test concerns the target T1, ArrMsm (Mycolicibacterium smegmatis, UniProt A0QRS5).
T1 construct: gene MSMEG_1221; purified wild-type enzyme, N-terminal His6 tag cleaved with C3 protease
As to the kind of experiment: ITC (also nanoDSF; rpTLC ADP-ribosylation). The format is binding. On the technique in general: DSF heats the sample and reads unfolding from a dye or from intrinsic fluorescence.

In the next test the target is T2, ArrMab (Mycobacteroides abscessus, UniProt B1MH05).
T2 construct: gene MAB_0591; purified wild-type enzyme, N-terminal His6 tag cleaved with C3 protease
T2 sequence (B1MH05 entry or part of it): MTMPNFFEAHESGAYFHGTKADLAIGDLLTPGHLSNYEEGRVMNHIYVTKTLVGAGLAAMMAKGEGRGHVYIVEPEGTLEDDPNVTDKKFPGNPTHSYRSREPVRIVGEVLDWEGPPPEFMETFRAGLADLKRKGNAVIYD
As to the kind of experiment: ITC (also nanoDSF; rpTLC ADP-ribosylation). The format is binding.

The structures appear in SMILES notation.

The term Kd denotes the concentration at which binding is half-saturated.

T1 sequence (A0QRS5 entry or part of it): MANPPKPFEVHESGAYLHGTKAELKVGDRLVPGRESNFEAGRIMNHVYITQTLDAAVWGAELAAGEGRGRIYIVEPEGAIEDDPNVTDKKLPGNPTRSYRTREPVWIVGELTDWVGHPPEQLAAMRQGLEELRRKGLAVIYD

With `CO[C@H]1/C=C/O[C@@]2(C)Oc3c(C)c(O)c4c(O)c(c(/C=N/N5CCN(C)CC5)c(O)c4c3C2=O)NC(=O)/C(C)=C\C=C\[C@H](C)[C@H](O)[C@@H](C)[C@@H](O)[C@@H](C)[C@H](OC(C)=O)[C@@H]1C` [RMP, Rifampicin], the Kd was found to be 290 ± 20 nM at ArrMsm and 4800 ± 3 nM on ArrMab.

(Values after paper PMC9802118, “C25-modified rifamycin derivatives with improved activity against Mycobacterium abscessus” (PNAS Nexus, 2022).)
